Molecules are shown by their SMILES. Entries after “also recorded” stand apart in the source; their conditions may differ.

For assay [1], the system named is C57BL/6J mice. Nature of the assay: Thioglycollate peritonitis model, leukocyte counting in peritoneal liquid. The assay is classed as in vivo, mouse. The protocol:
C57BL/6J (The Jackson Laboratory) female mice were chosen for this experiment. The acute inflammation was induced by thioglycollate injection into the abdominal cavity as described by Hoover-Plow J. L. et al. (Strain and model dependent differences in inflammatory cell recruitment in mice. Inflammation Research, 2008. 57(10): p. 457-463).
Mice were injected intraperitoneally with 0.5 mL of 4% thioglycollate (Becton Dickinson, Cockeysville, MD) and after 6 or 72 hours corresponding to peak neutrophil (6 hours) and macrophage (72 hours) recruitment, peritoneal lavage fluid, and cells were harvested as previously described by Ploplis, V. A. et al. (Plasminogen deficiency differentially affects recruitment of inflammatory cell populations in mice. Blood, 1998. 91(6): p. 2005-2009). The number of neutrophils and macrophages (Tang, L. P. and J. W. Eaton, Fibrin (Ogen) Mediates Acute Inflammatory Responses to Biomaterials. Journal of Experimental Medicine, 1993. 178(6): p. 2147-2156) accumulating in the lavage were determined from the enzyme activity of myeloperoxidase for neutrophils (Himmelhoch, S. R., et al., Purification of myeloperoxidases from the bone marrow of the guinea pig. Biochemistry, 1969. 8(3): p. 914-21) and non-specific esterase for macrophage/monocytes (Torres, J. L., R. S. Rush, and A. R. Main, Physical and chemical characterization of a horse serum carboxylesterase. Arch Biochem Biophys, 1988. 267(1): p. 271-9).
After inducing the inflammation (peritonitis), compound of Formula 2 was injected at a concentration of 12.5 mg/kg (DMSO, 01% in PBS, IP), twice (one day after the other). The next day, mice were sacrificed and the peritoneal liquid was collected from the control and treated mice (n=3 for each group). Two assays were conducted for the estimation of the possible anti-inflammatory effect of compound of Formula 2: leukocyte counting (the total amount and the calculation of the percentage of different leukocyte fractions) and a flow cytometry.

The test system of assay [2] is HUVECs intercellular junctions. Nature of the assay: Phenotypic changes at endothelial junctions (MesenFlow system). The assay is classed as cell-based, human. The text has this:
This manifestation was termed “Fluttering”. Fluttering was characterized by a rapid fluctuating movement at the intercellular junctions of adjacent HUVECs, and predominantly within tri-cellular corners. This was characterized by a rapid change in phase at the cellular edges consistent with a physical movement that was associated with no leukocytes adhesion or migration within these regions (FIG. 27). […] This observation is therefore representative of a phenotype that is indicative of a disruption in leukocyte transmigration.

The subject of assay [3] is B cells. The assay can be described thus: B-lymphocyte adhesion and transmigration, MesenFlow assay. The assay is classed as cell-based. To be noted: 30 μM. The protocol: Flow assays were conducted as described in a previous study (Bradfield, P. F., et al., JAM-C regulates unidirectional monocyte transendothelial migration in inflammation. Blood, 2007. 110(7): p. 2545-55). HUVECs were cultured at 1×10^5 cells/slide on Ibidi 6-chamber slides (80606; Ibidi) before treatment with TNFα (500 U/mL) for 6-10 hours. An individual chamber outlet was then attached to a calibrated pump (74 900; Cole Partner, Vernon Hills, IL) and flow was generated by perfusing wash buffer (M199 with 0.15% BSA) or a monocyte suspension (2.5×10^6 cells/mL) over the HUVEC monolayer. The flow rate was representative of shear rates in small venules (0.05 Pa). Observations made using phase-contrast microscopy (Model: Axiovert 100; Objective: 20×/0.3 NA air; Carl Zeiss) were recorded using a high-resolution camera (D70; Nikon, Zurich, Switzerland). Individual images were recorded every 30 seconds with Nikon capture software (v4.2) and compiled into movie sequences using Adobe Photoshop (CS6) and Image J (v1.5d), allowing analysis of individual monocytes over large areas. The tested compounds, e.g. compounds of the general Formula (I), were maintained at the specified concentration in all wash buffers throughout the course of the experiment. The compounds were preincubated separately on both HUVECs and monocytes 15 minutes prior to flow co-culture. […]

For assay [4], the system named is C57BL/6J mice. Nature of the assay: High-fat-diet induced non-alcoholic fatty liver disease (NAFLD) model. To be noted: 15 mg/kg SC or IP q3w; 30 mg/kg PO qd; 65 days. The assay is classed as in vivo, mouse. The protocol: Male C57BL/6J (Envigo, Israel) mice (3-4 weeks of age) were fed ad libitum a high fat, no high carbohydrate diet (modified Western diet, WD) with 42% kcal from fat and containing 0.1% cholesterol (Harlan TD.88137) with normal water (without high fructose-glucose solution) for […] prior to treatment initiation. Control mice were fed a standard chow diet (CD, Harlan TD.7012) with normal water (NW). Compound of Formula 2 was administrated on the 85th day of the high fat diet (15 mg/kg, for S.C and IP at q3w regiment; 30 mg/kg for PO at qd regiment) for 65 days. Mock treated (vehicle) control group was administrated with IP injections at the same volume and regiment as a corresponding treated group for 65 days. Body weight of animals was determined prior to the treatment initiation and the administered volume of the compound of Formula 2 was adjusted according to the body weight. All animals were euthanized 24 hours post last dose administration. At necropsy liver and mesenteric fat wet weights were determined. Liver and mesenteric fat were fixed with 4% buffered formalin, embedded in paraffin, sections and H&E stained. Steatohepatitis was defined by the presence of steatosis, inflammation and hepatocellular ballooning, as per the FLIP algorithm. The severity of steatosis, lobular inflammation and hepatocellular ballooning were scored using the NASH-Clinical Research Network (CRN) criteria. NAFLD activity score (NAS) was calculated by adding the scores of: steatosis (maximal score 3) is defined by more than 66% of hepatocytes containing fat droplets; lobular inflammation (maximal score 3) is defined by >4 foci/200 field; hepatocyte ballooning (maximal score 2) is defined by many cells/prominent ballooning. Ordinary one-way ANOVA statistical analysis was performed.

Turning to `COC(=O)c1ccc(COc2c(C=C3C(=O)NC(=O)NC3=O)cccc2C(C)(C)C)cc1` [Formula 2, methyl 4-((2-(tert-butyl)-6-((2,4,6-trioxotetrahydropyrimidin-5(2H)-ylidene)methyl)phenoxy)methyl) benzoate], in assay [1] (12.5 mg/kg IP, twice), the “amount of neutrophils and monocytes” value is “not affected”; the “increase of the amount of dendritic cells in the peritoneal liquid” value was determined as 2.5 fold; the “reduction of the amount of lymphocytes in the peritoneal liquid” value was 85%; the “total amount of leukocytes in the abdominal liquid” value is “not affected”. In assay [1] (FIG. 8 legend: 30 μM injected once on the third day, n=6), the “White blood cell (WBC) counts of peritoneal fluids” value is given as “reduced”. The junctional integrity entry in assay [2] (HUVECs co-culture) was “maintained”. The “Fluttering at HUVEC intercellular junctions” value in assay [2] (all HUVECs co-culture experiments) is given as “observed”. For the same compound, the “B cell adhesion and transmigration” value in assay [3] is “dramatic blocking effect”. In assay [4], the NAFLD activity score result is “significant reduction; also recorded: therapeutic effect”, the mesenteric fat weight entry is recorded as “significant reduction; also recorded: decreased”, the mice body weight entry is given as “significant reduction” and the wet liver weight entry was “significant reduction; also recorded: decreased”.
